Measured values as given in patent publication US7589123B2, “Chemical compounds” (Phytopharm PLC, priority 2006, dated 2009).

Experiments:
[1] = tested on: histamine-induced contractions in guinea pig ileum; assay: Inhibition of histamine-induced contractions in guinea pig ileum (Assay 3); settings: Cavia porcellus, histamine 1.7 μM, read-out: Inhibition of histamine-induced contraction (%)
Description: (§1) Duncan Hartley derived male guinea pigs (325±25 g) were suppressed by CO2 overexposure, the abdominal cavity was exposed and ileal segments were removed. Small strips of ileum were suspended in organ baths containing Krebs solution (composition in g/l: NaCl 6.89, KCl 0.35, CaCl2 0.277, KH2PO4 0.163, MgSO4.7H2O 0.296, NaHCO3 2.1 glucose 1.8). The solution was kept at 32° C. and gassed with O2 (95%)-CO2 (5%) to maintain pH at 7.4. Mechanical activity was recorded by means of isotonic transducers. A resting tension of 1 g was applied to muscle strips before being equilibrated for 1 h, prior to test compound addition. Each preparation was washed twice at 15 min intervals during the equilibration.
(§2) Histamine (1.7 μM; approximately EC60-70) or 5-hydroxytryptamine (5-HT, 2.6 μM; approximately EC60-70) was applied for 5 min and the amplitude of the contraction recorded. The histamine or 5-HT was then washed out until the ileal tissue returned to baseline. Five min after returning to baseline test compound (3 and 30 μM) was applied and the amplitude of the contraction (if any) was recorded. In the continuous presence of test compound, histamine or 5-HT was re-applied and the inhibition of the response was recorded.

[2] = tested on: IL-1α-induced PGE2 release; assay: IL-1α-induced PGE2 release in human diploid lung fibroblasts (WI-38) (Assay 5); format: cell-based; settings: Homo sapiens, WI-38 cells, IL-1α 1 nM, overnight
Description: (§3) Human diploid lung fibroblasts (WI-38 cells) were incubated overnight in the presence of IL-1α (1 nM) and test compound (3 and 30 μM) in modified Eagle medium at pH 7.3 containing foetal bovine serum (10%) at 37° C. The supernatant was assayed by radioimmunoassay for released PGE2 and the inhibition of PGE2 by test compound calculated (Table 10). The viability of the cells was then assessed by washing with Roswell Park Memorial Institute medium and adding Alamar Blue reagent before being incubated at 37° C. for 4 h. Living cells take up Alamar Blue and emit fluorescence when excited. Fluorescence intensity was measured using a SpectroFluor Plus plate reader with excitation at 530 nm and emission at 590 nm (Table 10).

5-lipoxygenase = biological target: T1, 5-lipoxygenase (Homo sapiens, UniProt P09917); assay: 5-lipoxygenase activity (LTB4) in human peripheral blood mononuclear leukocytes (Assay 6); format: cell-based; settings: human PBMLs, A23187 30 μM, read-out: Inhibition of 5-LO (%)
T1 construct: endogenous in cells; host or cells: human peripheral blood mononuclear leukocytes (PBMLs)
T1 sequence (P09917 1-674): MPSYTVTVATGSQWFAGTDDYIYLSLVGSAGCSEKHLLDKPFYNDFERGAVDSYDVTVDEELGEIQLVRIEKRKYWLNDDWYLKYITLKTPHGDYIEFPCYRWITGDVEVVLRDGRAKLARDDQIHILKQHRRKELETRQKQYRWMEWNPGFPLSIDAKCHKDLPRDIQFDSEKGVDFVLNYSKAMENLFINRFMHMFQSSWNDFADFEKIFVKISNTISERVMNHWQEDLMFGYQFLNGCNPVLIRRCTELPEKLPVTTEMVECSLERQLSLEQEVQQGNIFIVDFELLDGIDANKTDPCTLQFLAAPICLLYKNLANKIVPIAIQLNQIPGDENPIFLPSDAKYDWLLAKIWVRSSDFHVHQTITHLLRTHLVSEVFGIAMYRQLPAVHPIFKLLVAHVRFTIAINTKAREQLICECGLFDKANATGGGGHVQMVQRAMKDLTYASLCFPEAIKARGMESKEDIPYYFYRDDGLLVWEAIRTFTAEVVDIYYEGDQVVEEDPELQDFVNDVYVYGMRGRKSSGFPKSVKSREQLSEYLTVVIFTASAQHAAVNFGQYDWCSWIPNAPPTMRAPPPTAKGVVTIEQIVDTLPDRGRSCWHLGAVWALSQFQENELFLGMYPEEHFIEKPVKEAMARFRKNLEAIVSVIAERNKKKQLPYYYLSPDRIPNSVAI
Description: Human peripheral blood mononuclear leukocytes (PBMLs) were isolated using a Ficoll-Paque density gradient. Human peripheral blood mononuclear leukocytes (5×10^6 cells) were incubated with A23187 (30 μM), a divalent cation ionophore used to initiate the biosynthesis of […], and with vehicle (0.1% DMSO) or test compound (3 and 30 μM) in Hank's balanced salt solution (HBBS) buffer, pH 7.4 at 37° C. for 15 min. The PBML solution was neutralized with NaOH (1 N) and centrifuged at 1000 g for 10 min and the supernatant collected. The concentration of leukotriene B4 (LTB4) in the supernatant was measured using an enzyme immunoassay kit (Assay Design Inc.). A reduction in the concentration of LTB4 indicated an inhibition of the enzyme 5-lipoxygenase (Table 11).

TRPV1 receptor = TRPV1 receptor (Rattus norvegicus, UniProt O35433); assay: TRPV1 modulation in DRG neurones: CGRP release in absence and presence of capsaicin (Assay 2); format: cell-based; design: The culture used for this experiment contained sensory neurones, Schwann cells and fibroblasts; endogenous in cells; host or cells: primary rat DRG sensory neurone culture (with Schwann cells and fibroblasts); settings: 20 min; for inhibition at 3 µM: 3 μM with capsaicin 1 μM; for inhibition at 3 µM / inhibition at 30 µM: −ve: inhibition, +ve: potentiation of capsaicin response, read-out: Effect of test compounds on capsaicin (1 μM)-induced CGRP release (%); for inhibition at 30 µM: 30 μM with capsaicin 1 μM; for Emax at 3 µM: test compound alone 3 μM; for Emax at 3 µM / Emax at 30 µM: rat DRG sensory neurones, read-out: CGRP release (% of capsaicin (1 μM) response); for Emax at 30 µM: test compound alone 30 μM
[3] = tested on: α-smooth muscle actin (α-SMA) mRNA; assay: Anti-remodelling activity in human lung fibroblasts (HFL1): TGFβ-induced α-SMA mRNA (Assay 4); format: cell-based; settings: Homo sapiens, HFL1 cells, TGFβ 10 ng/ml, 24 h, read-out: Inhibition of α-SMA mRNA synthesis (%)
Description: A human foetal lung fibroblast cell line (HFL1 cells; ATCC accession number CCl-153) was used in this assay. The cells were cultured in medium containing a low level of foetal bovine serum (FBS; 0.1%) for 24 h. After 24 h of culturing the medium was changed to: (a) Control medium (medium containing 10% FBS, 1% phosphate saline and 0.5 mM L-glutamine), (b) Control medium and transforming growth factor beta (TGFβ; 10 ng/ml), (c) Control medium and TGFβ and test compounds (3 and 30 μM). The medium was collected after 24 h and the total mRNA extracted in Tri-reagent. The level of mRNA coding for α-smooth muscle actin (α-SMA) was assessed by real-time reverse transcription-polymerase chain reaction (rtRT-PCR) using primer couples that allow the amplification of α-SMA mRNA. Liver glyceraldehydes 3-phosphate dehydrogenase (GADPH) was used as a reference marker in this experiment. The inhibition of the TGTβ-induced overexpression of α-SMA mRNA by the test compounds was quantified.

[4] = tested on: 5-HT-induced contractions in guinea pig ileum; assay: Inhibition of 5-HT-induced contractions in guinea pig ileum (Assay 3); settings: Cavia porcellus, 5-HT 2.6 μM, read-out: Inhibition of 5-HT-induced contraction (%)
Description: as §1, §2

WI-38 cells = assay: Viability of WI-38 cells, Alamar Blue (Assay 5); format: cell-based, human
Description: as §3

Chain of TRPV1 receptor (O35433 whole entry): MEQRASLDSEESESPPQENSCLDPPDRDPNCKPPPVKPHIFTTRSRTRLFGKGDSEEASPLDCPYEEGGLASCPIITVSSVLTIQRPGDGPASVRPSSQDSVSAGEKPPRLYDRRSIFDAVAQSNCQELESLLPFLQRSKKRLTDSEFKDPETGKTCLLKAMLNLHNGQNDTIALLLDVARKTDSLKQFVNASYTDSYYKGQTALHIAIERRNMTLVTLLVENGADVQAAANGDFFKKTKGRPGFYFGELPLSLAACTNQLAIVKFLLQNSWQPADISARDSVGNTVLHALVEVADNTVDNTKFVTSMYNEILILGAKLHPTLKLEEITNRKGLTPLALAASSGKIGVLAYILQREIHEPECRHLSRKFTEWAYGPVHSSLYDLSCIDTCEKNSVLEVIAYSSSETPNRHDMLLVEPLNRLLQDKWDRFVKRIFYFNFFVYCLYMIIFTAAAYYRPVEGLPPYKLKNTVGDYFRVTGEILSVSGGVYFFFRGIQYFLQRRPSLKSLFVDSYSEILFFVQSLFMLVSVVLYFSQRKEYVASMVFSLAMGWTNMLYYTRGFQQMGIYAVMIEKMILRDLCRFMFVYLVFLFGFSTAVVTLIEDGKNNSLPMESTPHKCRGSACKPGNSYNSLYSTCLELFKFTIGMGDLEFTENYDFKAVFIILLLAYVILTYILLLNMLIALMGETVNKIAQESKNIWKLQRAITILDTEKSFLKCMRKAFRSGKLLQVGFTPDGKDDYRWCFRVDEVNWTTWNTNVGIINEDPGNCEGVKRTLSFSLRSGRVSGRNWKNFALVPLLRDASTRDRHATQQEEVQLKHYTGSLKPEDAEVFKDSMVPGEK

COc1cc(CCC(=O)CC(=O)c2cccc3ccccc23)ccc1O [Compound 27, 5-(4-Hydroxy-3-methoxylphenyl)-1-(naphthalene-1-yl)-pentane-1,3-dione]
inhibition at 3 µM [1]: 2% | inhibition at 30 µM [1]: 68% | inhibition at 3 µM [2]: 92% | inhibition at 30 µM [2]: 99% | inhibition at 3 µM (5-lipoxygenase): 92% | inhibition at 30 µM (5-lipoxygenase): 98% | inhibition at 3 µM (TRPV1 receptor): 46% | inhibition at 30 µM (TRPV1 receptor): -66% | Emax at 3 µM (TRPV1 receptor): 85% | Emax at 30 µM (TRPV1 receptor): 162% | inhibition at 3 µM [3]: 6% | inhibition at 30 µM [3]: 79% | inhibition at 3 µM [4]: 1% | inhibition at 30 µM [4]: 63% | Decrease in cell viability (%) (WI-38 cells; 3 μM): 4% | Decrease in cell viability (%) (WI-38 cells; 30 μM): 40%

COc1cc(CCC(=O)C(C)C(=O)C2(C)CC2)ccc1O (centres unmarked) [Compound 7, 5-(4-Hydroxy-3-methoxylphenyl)-2-methyl-1-(1-methylcyclopropyl)-pentane-1,3-dione]
inhibition at 3 µM [1]: 4% | inhibition at 30 µM [1]: 12% | inhibition at 3 µM [2]: 47% | inhibition at 30 µM [2]: 94% | inhibition at 3 µM (5-lipoxygenase): 24% | inhibition at 30 µM (5-lipoxygenase): 63% | inhibition at 3 µM (TRPV1 receptor): 19% | inhibition at 30 µM (TRPV1 receptor): 41% | Emax at 3 µM (TRPV1 receptor): 35% | Emax at 30 µM (TRPV1 receptor): 76% | inhibition at 3 µM [3]: -8% | inhibition at 30 µM [3]: 9% | inhibition at 3 µM [4]: 0% | inhibition at 30 µM [4]: 26% | Decrease in cell viability (%) (WI-38 cells; 3 μM): −4% | Decrease in cell viability (%) (WI-38 cells; 30 μM): 4%

COc1cc(CCC(=O)CC(=O)c2ccc(Cl)cc2C)ccc1O [Compound 76, 1-(4-Chloro-2-methylphenyl)-5-(4-hydroxy-3-methoxyphenyl)pentane-1,3-dione]
inhibition at 3 µM [1]: 9% | inhibition at 30 µM [1]: 81% | inhibition at 3 µM [2]: 99% | inhibition at 30 µM [2]: 101% | inhibition at 3 µM (5-lipoxygenase): 74% | inhibition at 30 µM (5-lipoxygenase): 99% | inhibition at 3 µM (TRPV1 receptor): 9% | inhibition at 30 µM (TRPV1 receptor): 4% | Emax at 3 µM (TRPV1 receptor): 55% | Emax at 30 µM (TRPV1 receptor): 107% | inhibition at 3 µM [3]: -1% | inhibition at 30 µM [3]: 94% | inhibition at 3 µM [4]: 26% | inhibition at 30 µM [4]: 72% | Decrease in cell viability (%) (WI-38 cells; 3 μM): 4% | Decrease in cell viability (%) (WI-38 cells; 30 μM): 26%

CCC(C(=O)CCc1ccc(O)c(OC)c1)C(=O)c1ccccc1 (centres unmarked) [Compound 12, 2-Ethyl-5-(4-hydroxy-3-methoxyphenyl)-1-phenyl-pentane-1,3-dione]
inhibition at 3 µM [1]: 3% | inhibition at 30 µM [1]: 41% | inhibition at 3 µM [2]: 69% | inhibition at 30 µM [2]: 101% | inhibition at 3 µM (5-lipoxygenase): 41% | inhibition at 30 µM (5-lipoxygenase): 94% | inhibition at 3 µM (TRPV1 receptor): 13% | inhibition at 30 µM (TRPV1 receptor): 14% | Emax at 3 µM (TRPV1 receptor): 19% | Emax at 30 µM (TRPV1 receptor): 73% | inhibition at 3 µM [3]: 9% | inhibition at 30 µM [3]: 34% | inhibition at 3 µM [4]: 3% | inhibition at 30 µM [4]: 47% | Decrease in cell viability (%) (WI-38 cells; 3 μM): 6% | Decrease in cell viability (%) (WI-38 cells; 30 μM): −5%

COc1cc(CCC(=O)CC(=O)C(c2ccccc2)c2ccccc2)ccc1O [Compound 30, 6-(4-Hydroxy-3-methoxyphenyl)-1,1-diphenyl-hexane-2,4-dione]
inhibition at 3 µM [1]: 8% | inhibition at 30 µM [1]: 89% | inhibition at 3 µM [2]: 46% | inhibition at 30 µM [2]: 99% | inhibition at 3 µM (5-lipoxygenase): 50% | inhibition at 30 µM (5-lipoxygenase): 99% | inhibition at 3 µM (TRPV1 receptor): 49% | inhibition at 30 µM (TRPV1 receptor): -150% | Emax at 3 µM (TRPV1 receptor): 70% | Emax at 30 µM (TRPV1 receptor): 122% | inhibition at 3 µM [3]: 84% | inhibition at 30 µM [3]: 100% | inhibition at 3 µM [4]: 6% | Decrease in cell viability (%) (WI-38 cells; 3 μM): −10% | Decrease in cell viability (%) (WI-38 cells; 30 μM): 29%

COc1cc(CCC(=O)C(Cc2ccccc2)C(=O)c2ccccc2)ccc1O (centres unmarked) [Compound 13, 2-Benzyl-5-(4-hydroxy-3-methoxyphenyl)-1-phenylpentane-1,3-dione]
inhibition at 3 µM [1]: 6% | inhibition at 30 µM [1]: 78% | inhibition at 3 µM [2]: 73% | inhibition at 30 µM [2]: 99% | inhibition at 3 µM (5-lipoxygenase): 51% | inhibition at 30 µM (5-lipoxygenase): 98% | inhibition at 3 µM (TRPV1 receptor): 48% | inhibition at 30 µM (TRPV1 receptor): -67% | Emax at 3 µM (TRPV1 receptor): 75% | Emax at 30 µM (TRPV1 receptor): 245% | inhibition at 3 µM [3]: 14% | inhibition at 30 µM [3]: 77% | inhibition at 3 µM [4]: 15% | inhibition at 30 µM [4]: 66% | Decrease in cell viability (%) (WI-38 cells; 3 μM): −4% | Decrease in cell viability (%) (WI-38 cells; 30 μM): −3%
